Numbers after ± are expanded uncertainties.
Experiments:
[1] = Molar enthalpy of transition or fusion; details: Crystal; DSC
[2] = DSC

Structure (SMILES): CNC(=O)c1ccc(N2C(=S)N(c3ccc(C#N)c(C(F)(F)F)c3)C(=O)C2(C)C)cc1F [Enzalutamide]
- Molar enthalpy of transition or fusion [1]: 8.61 ± 0.222 kcal/mol
- Triple point temperature ([2]; Crystal): 469.15 ± 1 K
- Glass transition temperature ([2]; Glass): 85.00 ± 1 °C
